# Test results reported in patent US20120213827A1, “PROCESS FOR CONTROLLED CRYSTALLIZATION OF AN ACTIVE PHARMACEUTICAL INGREDIENT FROM SUPERCOOLED LIQUID STATE BY HOT MELT EXTRUSION” (priority 2011, published 2012).
# Assay: Particle size analysis of dalcetrapib crystals (Malvern MasterSizer 2000, laser diffraction)
# Type: physicochemical
# Conditions: dispersant 0.1N HCl, sonicated 10 minutes
# Protocol: The particle size distribution of dalcetrapib crystals from the bulk API and in the matrix of a hot-melt extruded composition produced according to Example 1 was determined according to the following method:
# (§1) A Malvern MasterSizer 2000 was used for particle size measurement. The Fraunhofer optical model employed for analysis. The sample handling unit was a Hydro 2000S sonicator: Elma Model 9331. Sample measurement time was 20,000 snaps. The sample background time was 20,000 snaps. The dispersant media was 0.1N HCl, and the pump/stir speed was 2000 RPM.
# Sample preparation was as follows: About 10-15 mg of the sample was weighed in 20 mL scintillation vial and 10 mL of de-ionized 0.1N HCl was added. The sample was vortexed for 15 seconds and then sonicated for 10 minutes @ 100% power.
# The particle size distribution of dalcetrapib crystals in the matrices of hot-melt extruded compositions produced according to Example 5 was determined according to the following method:
# as §1, with “MasterSizer®” for “MasterSizer”, “Fraunhofer®” for “Fraunhofer”, “RPM” for “RPM.”
# Sample preparation was as follows: About 10-15 mg of the sample was weighed in a 20 mL scintillation vial and 10 mL of de-ionized 0.1N HCl was added. The sample was vortexed for 15 seconds and then sonicated for 10 minutes at 100% power.
smiles,measurement,value
"CCC(CC)CC1(C(=O)Nc2ccccc2SC(=O)C(C)C)CCCCC1 [bulk dalcetrapib, dalcetrapib]",mean particle diameter D(0.1),1.493 μm
same,mean particle diameter D(0.5),12.317 μm
same,mean particle diameter D(0.9),28.828 μm
